The results in this text go back to patent US9487540B2, “Compound for inhibiting the growth and proliferation of human liver cancer cells and method for synthesizing it” (priority 2015, dated 2016).

The subject of series [1] is HepG2 (Hepatocellular carcinoma cells). The experiment in a line: Cytotoxicity evaluation using viability assay (crystal violet colorimetric method). Conditions: Homo sapiens, 48 hours incubation, read-out: inhibition concentration value (IC50). The format is cell-based, human. The source says: (§1) HepG2 cells (human cell line of a well differentiated hepatocellular carcinoma isolated from a liver biopsy of a person) were obtained from the American Type Culture Collection (ATCC). The chemicals used were: Dimethyl sulfoxide (DMSO), crystal violet and trypan blue dye, purchased from Sigma, St. Louis, Mo., USA; DMEM, RPMI-1640, FBS, HEPES buffer solution, L-glutamine, gentamycin and 0.25% Trypsin-EDTA, purchased from BioWhittaker®, Lonza, Belgium; and Crystal violet stain (1%), composed of 0.5% (w/v) crystal violet and 50% methanol, made up to volume with ddH20 and filtered through a Whatmann No. I filter paper.
(§2) In the cytotoxicity assay, the cells were propagated in Dulbecco's modified Eagle's medium (DMEM) supplemented with 10% heat-inactivated fetal bovine serum, 1% L-glutamine, HEPES buffer and 50 μg/ml gentamycin. All cells were maintained at 37° C. in a humidified atmosphere with 5% CO2 and were subcultured two times a week.
(§3) Cell toxicity was monitored by determining the effect of the test samples on cell morphology and cell viability.
(§4) For cytotoxicity assay, the cells were seeded in a 96-well plate at a cell concentration of 1×10^4 cells per well in 100 μl of growth medium. Fresh medium containing different concentrations of the test sample was added after 24 hours following seeding. Serial two-fold dilutions of the tested chemical compound were added to confluent cell monolayers dispensed into 96-well, flat-bottomed microtiter plates (Falcon, N.J., USA) using a multichannel pipette. The microtiter plates were incubated at 37° C. in a humidified incubator with 5% CO2 for a period of 48 hours. Three wells were used for each concentration of the test sample. Control cells were incubated without test sample and with or without DMSO. The little percentage of DMSO present in the wells (maximal 0.1%) was found not to affect the experiment. After incubation of the cells for 24 hours at 37° C., various concentrations of sample (50, 25, 12.5, 6.25, 3.125 & 1.56 μg) were added, and the incubation was continued for 48 hours and viable cells yield was determined by a colorimetric method.
(§5) In brief, after the end of the incubation period, media were aspirated and the crystal violet solution (1%) was added to each well for at least 30 minutes. The stain was removed and the plates were rinsed using tap water until all excess stain was removed. Glacial acetic acid (30%) was then added to all wells and mixed thoroughly and then the absorbance of the plates was measured after being gently shaken on a Microplate reader (TECAN, Inc.), using a test wavelength of 490 nm. All results were corrected for background absorbance detected in wells without added stain. Treated samples were compared with the cell control in the absence of the tested compound. All experiments were carried out in triplicate.
(§6) The cell cytotoxic effect of tested compound was calculated according to the rapid colorimetric assay for cellular growth and survival: application to proliferation and cytotoxicity assay, published by T. Mosmann in the Journal of Immunology Methods, 1983, 65:55-63; and the antiviral activity of medicinal plants of Nilgriris, published by P. Vijayan et al. in the Indian Journal of Medical Research, 2004, 120: 24-29.

Assay in series [2]: as above
It is filed as cell-based, human. Conditions: human, HepG2 cells, 48 hours; for viability at 48 h, 1.56 μg: HepG2, sample conc. 1.56 μg; for viability at 48 h, 3.125 μg: HepG2, sample conc. 3.125 μg; for viability at 48 h, 6.25 μg: HepG2, sample conc. 6.25 μg; for viability at 48 h, 12.5 μg: HepG2, sample conc. 12.5 μg; for viability at 48 h, 25 μg: HepG2, sample conc. 25 μg; for viability at 48 h, 50 μg: HepG2, sample conc. 50 μg.
Description: as §1, §2, §3, §4, §5, §6

Assay in series [3]: as above
To be noted: human, HepG2 cells; for viability at 48 h, 0.78 μg: HepG2, sample conc. 0.78 μg. It is filed as cell-based.

In brackets after ≈: the same amount, converted by molar mass.

`O=c1[nH]c(Nc2ccc([N+](=O)[O-])cc2)nc2sc3c(c12)CCCCC3` (hydrate or solvate) [Compound III, 2-((4-Nitrophenyl)amino)-6,7,8,9-tetrahydro-3H-cyclohepta[4,5]thieno[2,3-d]pyrimidin-4(5H)-one] came in with a melting point of 298 °C.
`O=c1[nH]c(Nc2ccc([N+](=O)[O-])cc2)nc2sc3c(c12)CCCCC3` [Compound III, 2-((4-Nitrophenyl)amino)-6,7,8,9-tetrahydro-3H-cyclohepta[4,5]thieno[2,3-d]pyrimidin-4(5H)-one]: the IC50 in series [1] turned out to be 0.7 µg/mL (≈ 1.96 µM). In series [2], this compound registered a viability at 48 h, 1.56 μg of 36.9%; a viability at 48 h, 3.125 μg of 23.7%; a viability at 48 h, 6.25 μg of 18.5%; a viability at 48 h, 12.5 μg of 14.4%. Moreover, in series [2], the viability at 48 h, 25 μg was determined as 10.2% and the viability at 48 h, 50 μg turned out to be 6.32%. The viability at 48 h, 0.39 μg in series [3] (HepG2, sample conc. 0.39 μg) worked out at 60.8%. This compound registered a viability at 48 h, 0.78 μg in series [3] of 47.1%.
In series [2], `COc1cccc2c1C(=O)c1c(O)c3c(c(O)c1C2=O)C[C@@](O)(C(=O)CO)C[C@@H]3O[C@H]1C[C@H](N)[C@H](O)[C@H](C)O1` [Doxorubicin, reference compound] had a viability at 48 h, 1.56 μg of 48.2%; a viability at 48 h, 3.125 μg of 30.3%; a viability at 48 h, 6.25 μg of 21%; a viability at 48 h, 12.5 μg of 16.9%. Also, in series [2], the viability at 48 h, 25 μg amounted to 14.3% and the viability at 48 h, 50 μg turned out to be 10.9%. In addition, in series [3], the viability at 48 h, 0.78 μg turned out to be 57.4%.

Broadly, the melting point is the temperature of the solid-liquid transition. One may read the viability as the share of living cells, or the viability signal relative to a control.
